Assay results: patent publication US7572765B2, “Conformationally constrained parathyroid hormone (PTH) analogs” (The General Hospital Corporation, priority 2001, dated 2009)
Where “and” joins values, the source holds several entries; their conditions need not be identical. Equal entries are not always repeated. Where two headings read alike, the source gives them in different places. Square brackets hold non-standard residues; d marks the D form. Peptide text beside a SMILES is read from it. hArg = N=C(N)NCCCC[C@H](N)C(=O)O; Aib = CC(C)(N)C(=O)O

What was measured:
human P1R [1] = biological target: T1, human P1R (Homo sapiens, UniProt Q03431); assay: Competition binding in HKRK-B28 cells; details: HKRK-B28 cells; for IC50 / Binding IC50: tracer 125I-[M]PTH(1-21)amide, 4 h at 4° C., N.B. = no binding detected at 10 μm peptide
T1 construct: expressed in transfected cells; host or cells: HKRK-B28 (porcine kidney LLC-PK1, stably transfected)
T1 sequence (Q03431 27-593): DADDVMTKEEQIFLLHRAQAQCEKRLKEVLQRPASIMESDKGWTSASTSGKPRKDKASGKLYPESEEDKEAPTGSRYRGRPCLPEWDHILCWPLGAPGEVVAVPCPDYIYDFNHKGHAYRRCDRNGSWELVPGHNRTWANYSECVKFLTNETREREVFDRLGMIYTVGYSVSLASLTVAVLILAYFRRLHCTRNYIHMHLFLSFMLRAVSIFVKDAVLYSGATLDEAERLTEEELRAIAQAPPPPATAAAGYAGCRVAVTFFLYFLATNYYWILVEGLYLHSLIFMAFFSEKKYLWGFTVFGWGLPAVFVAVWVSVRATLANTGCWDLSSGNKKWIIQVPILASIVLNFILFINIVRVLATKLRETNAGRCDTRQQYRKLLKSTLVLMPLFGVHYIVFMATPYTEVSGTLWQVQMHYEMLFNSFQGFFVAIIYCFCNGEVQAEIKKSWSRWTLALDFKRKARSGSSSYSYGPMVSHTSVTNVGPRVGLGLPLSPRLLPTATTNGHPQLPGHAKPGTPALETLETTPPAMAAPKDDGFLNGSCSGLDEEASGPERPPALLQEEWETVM
Method: Cell Culture. The cell line HKRK-B28 (Takasu, H., et al., J. Bone Miner. Res. 14:11-20 (1999)) was derived from the porcine kidney cell line, LLC-PK1 by stable transfection with plasmid DNA encoding the human P1R and expresses ˜280,000 receptors per cell. These cells, as well as COS-7 cells and SaOS-2-B10 cells, were cultured at […] in T-75 flasks ([…]) in Dulbecco's modified Eagle's medium (DMEM) supplemented with fetal bovine serum (10%), penicillin G (20 units/ml), streptomycin sulfate (20 μg/ml) and amphotericin B (0.05 μg/ml) in a humidified atmosphere containing 5% CO2. Stock solutions of EGTA/trypsin and antibiotics were from GIBCO; fetal bovine serum was from Hyclone Laboratories (Logan, Utah). COS-7 cells sub-cultured in 24-well plates were transfected with plasmid DNA (200 ng per well) encoding the wild-type human P1R or truncated human P1R deleted for residues (24-181) (Shimizu, M., et al., J. Biol. Chem. 275:21836-21843 (2000)) that was purified by cesium chloride/ethidium bromide density gradient centrifugation, and FuGENE 6 transfection reagent (Roche Indianapolis Ind.) according to the manufacturer's recommended procedure. All cells, in 24-well plates, were treated with fresh media and shifted to 33° C. for 12 to 24 h prior to assay.
Competition Binding. Binding reactions were performed with HKRK-B28 cells or in COS-7 cells in 24-well plates. The cells were rinsed with 0.5 mL of binding buffer, and then treated successively with 100 μL binding buffer, 100 μL of binding buffer containing various amounts of unlabeled competitor ligand, and 100 μL of binding buffer containing ca. 100,000 cpm of ^125I-[M]PTH(1-21) or ^125I-[Aib^1,3,M]PTH(1-21)} (ca. 26 fmol; final volume=300 μL). Incubations were 4 to 6 h at 4° C., at which time near equilibrium conditions were attained. Cells were then placed on ice, the binding medium was removed, and the monolayer was rinsed three times with 0.5 mL of cold binding buffer. The cells were subsequently lysed with 0.5 mL […] and counted for radioactivity. For each tracer and in each experiment, the non-specific binding was determined as the radioactivity that bound in the presence of the same unlabeled peptide at a concentration of 1 μM, and was ˜1% of total radioactivity added for each tracer. The maximum specific binding (B0) was the total radioactivity bound in the absence of competing ligand, corrected for nonspecific binding, and for each tracer, ranged from 8% to 20% of the total radioactivity added. Nonlinear regression was used to calculate binding IC50 values (see below). Scatchard transformations of homologous competition binding data derived from studies with 26 fmol of ^125I-[Aib^1,3,M]PTH(1-21) were employed for estimations of apparent equilibrium dissociation constant (kDapps) and total number of ligand binding sites (Bmax), assuming a single class of binding sites and equal affinities of the iodinated and non iodinated ligand.
Data Calculation. Calculations were performed using Microsoft® Excel. Nonlinear regression analyses of binding and cAMP dose-response data were performed using the four-parameter equation: yp=Min+[(Max−Min)/(1+(IC50/x)^slope)]. The Excel Solver function was utilized for parameter optimization, as described previously (Carter, P. H., et al., Endocrinology 140: 4972-4981 (1999); Bowen, W. P., and Jerman, J. C., Trends in Pharmacol. Sci. 16: 413-417 (1995)). Differences between paired data sets were statistically evaluated using a one-tailed Student's t-test, assuming unequal variances for the two sets.
The P1R-binding properties of these analogs were assayed in competition studies performed in […]. In previous studies, PTH(1-14) binding could not be detected using ^125I-PTH(1-34) and related N-terminally intact and relatively unmodified radioligands (Luck, M. D., et al., Molecular Endocrinology 13:670-680 (1999)). […]

human P1R [2] = biological target: T1, human P1R; assay: cAMP stimulation in HKRK-B28 cells; type: cell-based; details: for cAMP EMax(obs.): basal 4.0 ± 0.1 pmole/well not subtracted

IC50 (human P1R [1]) [M]	EC50 (human P1R [2])	maximum (Emax) increase in intracellular cAMP (human P1R [2]) [fold]	cAMP EMax(obs.) (human P1R [2]) [pmole/well]	further results	SMILES
1.8e-08 ± 3e-09	2.5 ± 0.4 nM	~70	280 ± 11		CCCC[C@H](NC(=O)[C@H](CCCNC(=N)N)NC(=O)[C@H](CCC(=O)O)NC(=O)[C@@H](NC(=O)[C@H](CO)NC(=O)[C@H](C)NC(=O)[C@H](CC(C)C)NC(=O)[C@H](Cc1c[nH]cn1)NC(=O)[C@H](CCCCN)NC(=O)CNC(=O)[C@H](CC(C)C)NC(=O)[C@H](CC(N)=O)NC(=O)[C@H](Cc1c[nH]cn1)NC(=O)[C@H](CCCC)NC(=O)[C@H](CC(C)C)NC(=O)[C@H](CCC(N)=O)NC(=O)[C@@H](NC(=O)[C@H](CCC(=O)O)NC(=O)[C@H](CO)NC(=O)[C@@H](NC(=O)[C@H](C)N)C(C)C)[C@@H](C)CC)C(C)C)C(=O)N[C@@H](CCC(N)=O)C(=O)N[C@@H](Cc1c[nH]c2ccccc12)C(=O)N[C@@H](CC(C)C)C(=O)N[C@@H](CCCNC(=N)N)C(=O)N[C@@H](CCCCN)C(=O)N[C@@H](CCCCN)C(=O)N[C@@H](CC(C)C)C(=O)N[C@@H](CCC(N)=O)C(=O)N[C@@H](CC(=O)O)C(=O)N[C@H](C(=O)N[C@@H](Cc1c[nH]cn1)C(=O)N[C@@H](CC(N)=O)C(=O)N[C@@H](Cc1ccc(O)cc1)C(N)=O)C(C)C [PTH(1-34), [Nle^8,21, Tyr^34]PTH(1-34)amide, reference compound]
	16000 ± 2000 nM		111 ± 8	Binding IC50 (human P1R [1]): did not bind detachably; Binding IC50 (human P1R [1]; M]PTH (1-10)): N.B.; cAMP potency, fold more potent than [Ala^3,Gln^10]PTH(1-10) (human P1R [2]): 50 fold; cAMP potency, fold weaker relative to [Aib^1,3,M]PTH(1-11) (human P1R [2]): 4000 fold	CC[C@H](C)[C@H](NC(=O)[C@H](CCC(=O)O)NC(=O)C(C)(C)NC(=O)[C@@H](NC(=O)C(C)(C)N)C(C)C)C(=O)N[C@@H](CCC(N)=O)C(=O)N[C@@H](CC(C)C)C(=O)N[C@@H](CCSC)C(=O)N[C@@H](Cc1c[nH]cn1)C(=O)N[C@@H](CCC(N)=O)C(N)=O [[Aib^1,3,M]PTH(1-10), [Aib^1,3,Gln^10]PTH(1-10)] (H-[Aib]V[Aib]EIQLMHQ-NH2)
9.7e-07 ± 3e-07	4 nM and ~6 nM		243 ± 15	cAMP potency, fold greater than that of [M]PTH(1-11) (human P1R [2]): 1,000 fold; cAMP potency, fold greater than that of [M]PTH(1-11) (human P1R [2]; listed as [Aib^1,3,Gln^10,Har^11]PTH(1-11)): 1000 fold	CC[C@H](C)[C@H](NC(=O)[C@H](CCC(=O)O)NC(=O)C(C)(C)NC(=O)[C@@H](NC(=O)C(C)(C)N)C(C)C)C(=O)N[C@@H](CCC(N)=O)C(=O)N[C@@H](CC(C)C)C(=O)N[C@@H](CCSC)C(=O)N[C@@H](Cc1c[nH]cn1)C(=O)N[C@@H](CCC(N)=O)C(=O)N[C@@H](CCCCNC(=N)N)C(N)=O [[Aib^1,3,M]PTH(1-11), AibValAibGluIleGlnLeuMetHisGlnHar] (H-[Aib]V[Aib]EIQLMHQ[hArg]-NH2)
1.3e-07 ± 2e-08	1.1 nM and ~1 nM		278 ± 20	fold improvement of apparent binding affinity relative to [M]PTH(1-14) (human P1R [1]): 100 fold; fold improvement of apparent binding affinity relative to [M]PTH(1-14) (human P1R [1]; listed as Aib-1,3): approximately 100 fold; fold more potent in stimulating cAMP formation than [M]PTH(1-14) (human P1R [2]): 90 fold and 100 fold	CC[C@H](C)[C@H](NC(=O)[C@H](CCC(=O)O)NC(=O)C(C)(C)NC(=O)[C@@H](NC(=O)C(C)(C)N)C(C)C)C(=O)N[C@@H](CCC(N)=O)C(=O)N[C@@H](CC(C)C)C(=O)N[C@@H](CCSC)C(=O)N[C@@H](Cc1c[nH]cn1)C(=O)N[C@@H](CCC(N)=O)C(=O)N[C@@H](CCCCNC(=N)N)C(=O)N[C@@H](C)C(=O)N[C@@H](CCCCN)C(=O)N[C@@H](Cc1c[nH]c2ccccc12)C(N)=O [[Aib^1,3,M]PTH(1-14), AibValAibGluIleGlnLeuMetHisGlnHarAlaLysTrp] (H-[Aib]V[Aib]EIQLMHQ[hArg]AKW-NH2)
		~70	270 ± 8	cAMP potency (EC50), fold less than that of PTH(1-34) (human P1R [2]): 40 fold	CC[C@H](C)[C@H](NC(=O)[C@H](CCC(=O)O)NC(=O)[C@H](C)NC(=O)[C@@H](NC(=O)[C@H](C)N)C(C)C)C(=O)N[C@@H](CCC(N)=O)C(=O)N[C@@H](CC(C)C)C(=O)N[C@@H](CCSC)C(=O)N[C@@H](Cc1c[nH]cn1)C(=O)N[C@@H](CCC(N)=O)C(=O)N[C@@H](CCCCNC(=N)N)C(=O)N[C@@H](C)C(=O)N[C@@H](CCCCN)C(=O)N[C@@H](Cc1c[nH]c2ccccc12)C(N)=O [[M]PTH(1-14), [Ala^3,12,Gln^10,Har^11,Trp^14]PTH(1-14)amide, reference compound] (H-AVAEIQLMHQ[hArg]AKW-NH2)
